Test results from patent publication US7572786B2, “Substituted 1-piperidin-3-yl-4-piperidin-4-yl-piperazine derivatives and their use as neurokinin antagonists” (Janssen Pharmaceutica, N.V., priority 2002, dated 2009).

These molecules were tested against T1, NK3 (Homo sapiens, UniProt P29371) (assay: Signal transduction (ST), intracellular Ca++ (FLIPR), NK3). Details: not given.
T1 sequence (P29371 1-465): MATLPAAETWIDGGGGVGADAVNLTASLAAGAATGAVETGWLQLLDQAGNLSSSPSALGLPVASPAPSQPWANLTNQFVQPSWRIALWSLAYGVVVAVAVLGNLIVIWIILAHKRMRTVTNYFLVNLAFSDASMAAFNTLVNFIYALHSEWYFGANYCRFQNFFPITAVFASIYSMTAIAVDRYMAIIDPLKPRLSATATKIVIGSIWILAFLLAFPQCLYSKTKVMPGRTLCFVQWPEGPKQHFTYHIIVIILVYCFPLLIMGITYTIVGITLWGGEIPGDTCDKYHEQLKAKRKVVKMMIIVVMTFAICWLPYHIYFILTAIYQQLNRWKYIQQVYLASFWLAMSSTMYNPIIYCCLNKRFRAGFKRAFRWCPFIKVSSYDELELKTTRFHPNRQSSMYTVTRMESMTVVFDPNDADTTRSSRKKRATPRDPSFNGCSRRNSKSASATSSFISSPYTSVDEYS
Type: cell-based
Procedure: [The source words this procedure for another target and reports this target under the same test.] (§1) This test evaluates in vitro functional NK1 antagonistic activity. For the measurements of intracellular Ca^++ concentrations the cells were grown on 96-well (black wall/transparent bottom) plates from Costar for 2 days until they reached confluence. The cells were loaded with 2 μM Fluo3 in DMEM containing 0.1% BSA and 2.5 mM probenecid for 1 h at 37° C. […] The cells were preincubated with a concentration range of antagonists for 20 min at RT and Ca^++-signals after addition of the agonists were measured in a Fluorescence Image Plate Reader (FLIPR from Molecular Devices, Crawley, England). The peak of the Ca^++-transient was considered as the relevant signal and the mean values of corresponding wells were analysed as described below.
(§2) The sigmoidal dose response curves were analysed by computerised curve-fitting, using the GraphPad Program. […] For antagonist responses the IC50-value was calculated using non-linear regression.

Row | Compound | pIC50 NK3
1 | O=C(Nc1ccc(Cl)cc1)N1CCCC(N2CCN([C@H]3CCN(C(=O)c4cc(C(F)(F)F)cc(C(F)(F)F)c4)[C@H](Cc4ccccc4)C3)CC2)C1 (stereo partly drawn) [Compound 74] | 5.5
2 | CC(C)(C)OC(=O)N1CCC[C@@H]1C(=O)N1CCCC(N2CCN([C@H]3CCN(C(=O)c4cc(C(F)(F)F)cc(C(F)(F)F)c4)[C@H](Cc4ccccc4)C3)CC2)C1 (stereo partly drawn) [Compound 53] | 7.3
3 | O=C(c1cc(C(F)(F)F)cc(C(F)(F)F)c1)N1CC[C@H](N2CCN(C3CCCN(S(=O)(=O)c4ccc(Cl)s4)C3)CC2)C[C@H]1Cc1ccccc1 (stereo partly drawn) [Compound 36] | 6.2
4 | COc1ccccc1S(=O)(=O)N1CCCC(N2CCN([C@H]3CCN(C(=O)c4cc(C(F)(F)F)cc(C(F)(F)F)c4)[C@H](Cc4ccccc4)C3)CC2)C1 (stereo partly drawn) [Compound 68] | 5.8

Same assay, conditions: read-out: pIC50 NK3 (converted)

Row | Compound | IC50
5 | O=C(c1ccccc1F)N1CCCC(N2CCN([C@H]3CCN(C(=O)c4cc(C(F)(F)F)cc(C(F)(F)F)c4)[C@H](Cc4ccccc4)C3)CC2)C1 (stereo partly drawn) [Compound 9] | 794 nM
6 | O=C(c1cc(C(F)(F)F)cc(C(F)(F)F)c1)N1CC[C@H](N2CCN(C3CCCN(S(=O)(=O)c4csc(COCc5ccccc5)c4)C3)CC2)C[C@H]1Cc1ccccc1 (stereo partly drawn) [Compound 104] | 316 nM
7 | COc1ccc(NC(=NC#N)N2CCCC(N3CCN([C@H]4CCN(C(=O)c5cc(C(F)(F)F)cc(C(F)(F)F)c5)[C@H](Cc5ccccc5)C4)CC3)C2)cc1 (stereo partly drawn) [Compound 94] | 1000 nM
8 | O=C(c1cc(C(F)(F)F)cc(C(F)(F)F)c1)N1CCC(N2CCN(C3CCCN(S(=O)(=O)c4cccs4)C3)CC2)CC1Cc1ccccc1 (stereo not drawn) [Compound 59] | 2000 nM
9 | Cc1ccccc1C(=O)N1CCCC(N2CCN([C@H]3CCN(C(=O)c4cc(C(F)(F)F)cc(C(F)(F)F)c4)[C@H](Cc4ccccc4)C3)CC2)C1 (stereo partly drawn) [Compound 11] | 1000 nM
10 | Cn1cnc(C(=O)N2CCCC(N3CCN([C@H]4CCN(C(=O)c5cc(C(F)(F)F)cc(C(F)(F)F)c5)[C@H](Cc5ccccc5)C4)CC3)C2)c1 (stereo partly drawn) [Compound 63] | 6310 nM
11 | O=C(C1CCCC1)N1CCCC(N2CCN(C3CCN(C(=O)c4cc(C(F)(F)F)cc(C(F)(F)F)c4)C(Cc4ccccc4)C3)CC2)C1 (stereo not drawn) [Compound 41] | 100 nM
12 | COc1ccc(S(=O)(=O)N2CCCC(N3CCN([C@H]4CCN(C(=O)c5cc(C(F)(F)F)cc(C(F)(F)F)c5)[C@H](Cc5ccccc5)C4)CC3)C2)s1 (stereo partly drawn) [Compound 95] | 1260 nM
13 | CC(C)(C)OC(=O)N1CCCC1C(=O)N1CCCC(N2CCN(C3CCN(C(=O)c4cc(C(F)(F)F)cc(C(F)(F)F)c4)C(Cc4ccccc4)C3)CC2)C1 (stereo not drawn) [Compound 54] | 251 nM
14 | O=C(c1cc(C(F)(F)F)cc(C(F)(F)F)c1)N1CCC(N2CCN(C3CCCN(C(CO)c4cccs4)C3)CC2)CC1Cc1ccccc1 (stereo not drawn) [Compound 77] | 3160 nM

The molecules below were run against T2, NK2 (Homo sapiens, UniProt P21452) (assay: Signal transduction (ST), intracellular Ca++ (FLIPR), NK2). Details: not given.
T2 sequence (P21452 1-398): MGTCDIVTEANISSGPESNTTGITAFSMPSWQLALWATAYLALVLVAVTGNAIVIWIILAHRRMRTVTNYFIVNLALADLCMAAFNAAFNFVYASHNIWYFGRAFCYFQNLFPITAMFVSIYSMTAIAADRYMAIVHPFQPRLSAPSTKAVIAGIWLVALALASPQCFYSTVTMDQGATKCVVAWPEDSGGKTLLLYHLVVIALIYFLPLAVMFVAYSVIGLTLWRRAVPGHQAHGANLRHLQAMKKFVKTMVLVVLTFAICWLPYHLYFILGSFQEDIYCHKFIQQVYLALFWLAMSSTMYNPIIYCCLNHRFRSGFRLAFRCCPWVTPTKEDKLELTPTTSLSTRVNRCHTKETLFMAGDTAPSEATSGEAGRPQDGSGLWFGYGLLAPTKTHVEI
Type: cell-based
Procedure: [The source words this procedure for another target and reports this target under the same test.] as §1, §2

Row | Compound | pIC50 NK2
15 | O=C(Nc1ccc(Cl)cc1)N1CCCC(N2CCN([C@H]3CCN(C(=O)c4cc(C(F)(F)F)cc(C(F)(F)F)c4)[C@H](Cc4ccccc4)C3)CC2)C1 (stereo partly drawn) [Compound 74] | 5.4
16 | CC(C)(C)OC(=O)N1CCC[C@@H]1C(=O)N1CCCC(N2CCN([C@H]3CCN(C(=O)c4cc(C(F)(F)F)cc(C(F)(F)F)c4)[C@H](Cc4ccccc4)C3)CC2)C1 (stereo partly drawn) [Compound 53] | 5.7
17 | O=C(c1cc(C(F)(F)F)cc(C(F)(F)F)c1)N1CC[C@H](N2CCN(C3CCCN(S(=O)(=O)c4ccc(Cl)s4)C3)CC2)C[C@H]1Cc1ccccc1 (stereo partly drawn) [Compound 36] | 5.3
18 | COc1ccccc1S(=O)(=O)N1CCCC(N2CCN([C@H]3CCN(C(=O)c4cc(C(F)(F)F)cc(C(F)(F)F)c4)[C@H](Cc4ccccc4)C3)CC2)C1 (stereo partly drawn) [Compound 68] | 5.8

Same assay, conditions: read-out: pIC50 NK2 (converted)

Row | Compound | IC50
19 | O=C(c1ccccc1F)N1CCCC(N2CCN([C@H]3CCN(C(=O)c4cc(C(F)(F)F)cc(C(F)(F)F)c4)[C@H](Cc4ccccc4)C3)CC2)C1 (stereo partly drawn) [Compound 9] | 2.51 µM
20 | O=C(c1cc(C(F)(F)F)cc(C(F)(F)F)c1)N1CC[C@H](N2CCN(C3CCCN(S(=O)(=O)c4csc(COCc5ccccc5)c4)C3)CC2)C[C@H]1Cc1ccccc1 (stereo partly drawn) [Compound 104] | 1.26 µM
21 | COc1ccc(NC(=NC#N)N2CCCC(N3CCN([C@H]4CCN(C(=O)c5cc(C(F)(F)F)cc(C(F)(F)F)c5)[C@H](Cc5ccccc5)C4)CC3)C2)cc1 (stereo partly drawn) [Compound 94] | 3.98 µM
22 | O=C(c1cc(C(F)(F)F)cc(C(F)(F)F)c1)N1CCC(N2CCN(C3CCCN(S(=O)(=O)c4cccs4)C3)CC2)CC1Cc1ccccc1 (stereo not drawn) [Compound 59] | 3.16 µM
23 | Cc1ccccc1C(=O)N1CCCC(N2CCN([C@H]3CCN(C(=O)c4cc(C(F)(F)F)cc(C(F)(F)F)c4)[C@H](Cc4ccccc4)C3)CC2)C1 (stereo partly drawn) [Compound 11] | 3.16 µM
24 | Cn1cnc(C(=O)N2CCCC(N3CCN([C@H]4CCN(C(=O)c5cc(C(F)(F)F)cc(C(F)(F)F)c5)[C@H](Cc5ccccc5)C4)CC3)C2)c1 (stereo partly drawn) [Compound 63] | 3.16 µM
25 | O=C(C1CCCC1)N1CCCC(N2CCN(C3CCN(C(=O)c4cc(C(F)(F)F)cc(C(F)(F)F)c4)C(Cc4ccccc4)C3)CC2)C1 (stereo not drawn) [Compound 41] | 3.16 µM
26 | COc1ccc(S(=O)(=O)N2CCCC(N3CCN([C@H]4CCN(C(=O)c5cc(C(F)(F)F)cc(C(F)(F)F)c5)[C@H](Cc5ccccc5)C4)CC3)C2)s1 (stereo partly drawn) [Compound 95] | 3.16 µM
27 | CC(C)(C)OC(=O)N1CCCC1C(=O)N1CCCC(N2CCN(C3CCN(C(=O)c4cc(C(F)(F)F)cc(C(F)(F)F)c4)C(Cc4ccccc4)C3)CC2)C1 (stereo not drawn) [Compound 54] | 2 µM
28 | O=C(c1cc(C(F)(F)F)cc(C(F)(F)F)c1)N1CCC(N2CCN(C3CCCN(C(CO)c4cccs4)C3)CC2)CC1Cc1ccccc1 (stereo not drawn) [Compound 77] | 2 µM

The molecules below were run against NK1 (Homo sapiens, UniProt P25103) (assay: Signal transduction (ST), intracellular Ca++ (FLIPR), NK1 antagonism). Details: not given.
Type: cell-based
Procedure: as §1, §2

Sequence of NK1 (P25103 whole entry): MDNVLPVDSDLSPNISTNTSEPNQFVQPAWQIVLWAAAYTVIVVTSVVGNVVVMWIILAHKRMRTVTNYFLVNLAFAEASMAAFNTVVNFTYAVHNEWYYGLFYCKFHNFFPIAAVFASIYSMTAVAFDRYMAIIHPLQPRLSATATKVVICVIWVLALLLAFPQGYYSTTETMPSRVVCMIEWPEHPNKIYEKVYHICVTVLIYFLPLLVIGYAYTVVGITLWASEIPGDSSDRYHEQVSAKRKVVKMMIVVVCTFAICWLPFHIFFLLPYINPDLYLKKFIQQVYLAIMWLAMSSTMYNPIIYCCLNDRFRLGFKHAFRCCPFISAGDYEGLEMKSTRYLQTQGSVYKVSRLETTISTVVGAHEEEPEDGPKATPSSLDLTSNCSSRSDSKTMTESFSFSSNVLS

Row | Compound | pIC50 NK1
29 | O=C(Nc1ccc(Cl)cc1)N1CCCC(N2CCN([C@H]3CCN(C(=O)c4cc(C(F)(F)F)cc(C(F)(F)F)c4)[C@H](Cc4ccccc4)C3)CC2)C1 (stereo partly drawn) [Compound 74] | 8.0
30 | CC(C)(C)OC(=O)N1CCC[C@@H]1C(=O)N1CCCC(N2CCN([C@H]3CCN(C(=O)c4cc(C(F)(F)F)cc(C(F)(F)F)c4)[C@H](Cc4ccccc4)C3)CC2)C1 (stereo partly drawn) [Compound 53] | 8.3
31 | O=C(c1cc(C(F)(F)F)cc(C(F)(F)F)c1)N1CC[C@H](N2CCN(C3CCCN(S(=O)(=O)c4ccc(Cl)s4)C3)CC2)C[C@H]1Cc1ccccc1 (stereo partly drawn) [Compound 36] | 7.5
32 | COc1ccccc1S(=O)(=O)N1CCCC(N2CCN([C@H]3CCN(C(=O)c4cc(C(F)(F)F)cc(C(F)(F)F)c4)[C@H](Cc4ccccc4)C3)CC2)C1 (stereo partly drawn) [Compound 68] | 8.0

Same assay, conditions: read-out: pIC50 NK1 (converted)

Row | Compound | IC50
33 | O=C(c1ccccc1F)N1CCCC(N2CCN([C@H]3CCN(C(=O)c4cc(C(F)(F)F)cc(C(F)(F)F)c4)[C@H](Cc4ccccc4)C3)CC2)C1 (stereo partly drawn) [Compound 9] | 15.8 nM
34 | O=C(c1cc(C(F)(F)F)cc(C(F)(F)F)c1)N1CC[C@H](N2CCN(C3CCCN(S(=O)(=O)c4csc(COCc5ccccc5)c4)C3)CC2)C[C@H]1Cc1ccccc1 (stereo partly drawn) [Compound 104] | 126 nM
35 | COc1ccc(NC(=NC#N)N2CCCC(N3CCN([C@H]4CCN(C(=O)c5cc(C(F)(F)F)cc(C(F)(F)F)c5)[C@H](Cc5ccccc5)C4)CC3)C2)cc1 (stereo partly drawn) [Compound 94] | 20 nM
36 | O=C(c1cc(C(F)(F)F)cc(C(F)(F)F)c1)N1CCC(N2CCN(C3CCCN(S(=O)(=O)c4cccs4)C3)CC2)CC1Cc1ccccc1 (stereo not drawn) [Compound 59] | 15.8 nM
37 | Cc1ccccc1C(=O)N1CCCC(N2CCN([C@H]3CCN(C(=O)c4cc(C(F)(F)F)cc(C(F)(F)F)c4)[C@H](Cc4ccccc4)C3)CC2)C1 (stereo partly drawn) [Compound 11] | 20 nM
38 | Cn1cnc(C(=O)N2CCCC(N3CCN([C@H]4CCN(C(=O)c5cc(C(F)(F)F)cc(C(F)(F)F)c5)[C@H](Cc5ccccc5)C4)CC3)C2)c1 (stereo partly drawn) [Compound 63] | 5.01 nM
39 | O=C(C1CCCC1)N1CCCC(N2CCN(C3CCN(C(=O)c4cc(C(F)(F)F)cc(C(F)(F)F)c4)C(Cc4ccccc4)C3)CC2)C1 (stereo not drawn) [Compound 41] | 7.94 nM
40 | COc1ccc(S(=O)(=O)N2CCCC(N3CCN([C@H]4CCN(C(=O)c5cc(C(F)(F)F)cc(C(F)(F)F)c5)[C@H](Cc5ccccc5)C4)CC3)C2)s1 (stereo partly drawn) [Compound 95] | 31.6 nM
41 | CC(C)(C)OC(=O)N1CCCC1C(=O)N1CCCC(N2CCN(C3CCN(C(=O)c4cc(C(F)(F)F)cc(C(F)(F)F)c4)C(Cc4ccccc4)C3)CC2)C1 (stereo not drawn) [Compound 54] | 5.01 nM
42 | O=C(c1cc(C(F)(F)F)cc(C(F)(F)F)c1)N1CCC(N2CCN(C3CCCN(C(CO)c4cccs4)C3)CC2)CC1Cc1ccccc1 (stereo not drawn) [Compound 77] | 12.6 nM
